Measurements taken from patent US20250115598A1 (Anaxis Pharma Pty Ltd, priority 2021, published 2025).
Where two headings read alike, the source gives them in different places.

Assays:
[1] = biological target: human MLKL (full length) (Homo sapiens (Human), UniProt Q8NB16); experiment: KINOMEscan binding assay, human MLKL (full length); conditions: hMLKL, Table 25; read-out: MLKL (KD)
In short: (§1)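 Tagged kinase + immobilized ligand beads + compound; eluted kinase quantified by qPCR. Kinase source: T7 phage lysate (BL21-derived E. coli, 32 °C) or HEK-293 with DNA tag. 11-pt 3-fold series, 1% DMSO, top 30,000 nM (most). Hill fit, slope −1 → Kd.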

[2] = test system: U937 human histiocytic leukemia cell line; experiment: Cellular assay: inhibition of TSQ induced necroptosis, CellTitre-Glo viability; conditions: Homo sapiens, U-937; U937 cells, 48 hours, TSQ cocktail, Table 26; read-out: Inhibition of TSQ-induced necroptosis (IC50 cell-based assay)
Protocol: Cellular Assay: Screening Compounds for Inhibition of TSQ Induced Necroptosis, 384 Well Plate Format.
(§2) • Cell Line ID: U937 human histiocytic leukemia cell line. • Cell Concentration (cells/well): Final cell density is 20000 cells per well. • Cell growth medium: HT-RPMI medium+7.4% Fetal Bovine Serum (FBS). Cells are cultured in Corning 150 cm^2 tissue culture flasks with vented caps at 37° C./5% CO2. • Incubation: Plates were incubated at 37° C./5% CO2 in a humidified incubator for 48 hours following addition of compounds and death stimuli (TSQ cocktail). • Compound concentration: 36 μM starting concentration, 1:3 dilution, 10 point • DMSO final concentration (% v/v): 0.3%. Compounds in TSQ Cocktail (T: TNF; S: Smac Mimetic; Q: Q-VD-OPh) and their Final Concentrations: • hTNF-Fc (100 ng/ml)—produced by standard procedures as shown in Bossen et al., J. Biol. Chem., 2006, 281(20), 13964-13971. • Compound A (500 nM)—Smac mimetic, Tetralogic and SYNthesis med chem • Q-VD-OPh (10 μM)—MP Biomedicals
(§3) The cellular assay was carried out according to the following steps: • 1. Each well was prepared by sequential addition of: • a. DMSO (control; columns 1-2 and 23-24) or compound in DMSO—addition was performed using acoustic transfer of nL volumes of stock compound to give final test concentrations of 36, 12, 4, 1.3, 0.44, 0.148, 0.049, 0.016, 0.005 and 0.002 μM. All wells were backfilled with DMSO to a final total volume in the well of 100 nL. • b. Following compound/DMSO addition in step (a), 40 μL of cell suspension (5×10^5 cells/mL) was added to provide a final cell concentration of 20,000 cells per well, and • c. Following cell addition in step (b), 10 μL of 5×TSQ cocktail (except to positive controls; columns 1 and 23) was added to each well. • 2. After 48 hours, plate was removed from the 37° C. incubator and equilibrated to room temperature for 45 minutes. • 3.15 μL of room temperature CellTitre-Glo2™ (Promega™) was added to each well. • 4. Shook plates for 2 minutes (˜600 rpm) and incubated at room temperature for 15 minutes to allow signal to stabilise. • 5. Read luminescence readout on a plate reader.
Percent viability was calculated for each compound according to equation (2):
(§4) • Assay involving the TSQ cocktail (T: TNF; S: Smac mimetic; Q: Q-VD-OPh): TSQ treatment ensures that cells specifically undergo necroptotic cell death. TNF activates the TNF receptor, Smac mimetic directs the signal away from proinflammatory signaling and toward the RIPK1/RIPK3-mediated cell death pathways, and Q-VD-OPh ensures that the apoptotic response is blocked leaving only the programmed necrosis response. The compounds' activity (solution in DMSO) tested in this TSQ-induced assay was evaluated by determining the number of viable cells in culture by measuring the amount of ATP present as measured by CelltiterGlo. • Counter screen: In parallel, all compounds were tested for their ability to affect cell viability. The same U937 cells were treated with compound in DMSO without the TSQ cocktail. This counter screen enabled evaluation of off-target effects. In this case, cell viability was measured by CelltiterGlo.

[3] = test system: U937 cells; experiment: Counter screen: cell viability without the TSQ cocktail (off-target effect); parameters: species or system human
Protocol: as §2, §3, §4

[4] = biological target: human RIPK1 (Homo sapiens (Human), UniProt Q13546); experiment: KINOMEscan binding assay, human RIPK1; conditions: Table 21
In short: as §1

[5] = biological target: human RIPK3 (Homo sapiens (Human), UniProt Q9Y572); experiment: KINOMEscan binding assay, human RIPK3; conditions: Table 21
In short: as §1

[6] = test system: Immortalised Mouse Dermal Fibroblasts (MDFs); experiment: Cellular assay: inhibition of TSI induced necroptosis, CellTitre-Glo viability; conditions: Mus musculus, Fibroblast; MDF, 3 hours TSI cocktail, Table 24; read-out: Inhibition of TSI-induced necroptosis (IC50 cell-based assay) in MDF
In short: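 Immortalised mouse dermal fibroblasts (2200 cells/well) pretreated 30 min with compound, 10-point 1:3 series from 36 μM, 0.3% DMSO. Then 3 h at 37° C. with TNF (100 ng/ml), Smac mimetic (500 nM) and IDN-6556 (10 μM). CellTiter-Glo luminescence normalised to DMSO (100%) and DMSO+TSI (0%); IC50 from 4-parameter logistic fit.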

[7] = Homo sapiens, U-937, Table 26, read-out: Off-target effect (IC50 cell-based assay)
[8] = Homo sapiens, U-937, Table 23, read-out: Off-target effect (IC50 cell-based assay)

Chain of human MLKL (full length) (Q8NB16 whole entry): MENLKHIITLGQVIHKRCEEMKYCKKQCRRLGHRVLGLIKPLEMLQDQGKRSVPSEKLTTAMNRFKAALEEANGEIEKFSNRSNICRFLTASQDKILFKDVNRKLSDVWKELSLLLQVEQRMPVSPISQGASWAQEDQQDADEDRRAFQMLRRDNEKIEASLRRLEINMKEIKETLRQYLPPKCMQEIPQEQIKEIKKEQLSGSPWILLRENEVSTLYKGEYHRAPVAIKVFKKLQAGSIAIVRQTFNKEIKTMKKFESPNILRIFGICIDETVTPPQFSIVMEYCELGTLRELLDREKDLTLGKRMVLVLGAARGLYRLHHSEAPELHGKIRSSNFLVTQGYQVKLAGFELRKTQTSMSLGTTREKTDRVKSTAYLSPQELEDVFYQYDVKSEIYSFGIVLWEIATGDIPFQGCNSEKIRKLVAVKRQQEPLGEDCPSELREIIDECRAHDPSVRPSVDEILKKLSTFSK
Chain of human RIPK3 (Q9Y572 whole entry): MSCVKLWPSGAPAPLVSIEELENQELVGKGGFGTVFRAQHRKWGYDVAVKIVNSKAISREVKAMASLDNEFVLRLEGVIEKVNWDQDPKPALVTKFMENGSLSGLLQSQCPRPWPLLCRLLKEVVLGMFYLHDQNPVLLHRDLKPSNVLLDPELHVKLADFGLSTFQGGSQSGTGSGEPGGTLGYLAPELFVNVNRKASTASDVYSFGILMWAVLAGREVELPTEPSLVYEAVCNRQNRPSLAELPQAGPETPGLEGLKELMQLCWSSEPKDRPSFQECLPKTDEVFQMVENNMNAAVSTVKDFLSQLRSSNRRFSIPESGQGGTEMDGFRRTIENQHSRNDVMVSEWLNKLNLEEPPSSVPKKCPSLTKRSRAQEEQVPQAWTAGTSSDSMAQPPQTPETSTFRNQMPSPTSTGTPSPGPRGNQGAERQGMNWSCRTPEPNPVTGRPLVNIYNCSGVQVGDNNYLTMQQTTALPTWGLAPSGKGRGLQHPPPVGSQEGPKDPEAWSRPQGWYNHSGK
Chain of human RIPK1 (Q13546 whole entry): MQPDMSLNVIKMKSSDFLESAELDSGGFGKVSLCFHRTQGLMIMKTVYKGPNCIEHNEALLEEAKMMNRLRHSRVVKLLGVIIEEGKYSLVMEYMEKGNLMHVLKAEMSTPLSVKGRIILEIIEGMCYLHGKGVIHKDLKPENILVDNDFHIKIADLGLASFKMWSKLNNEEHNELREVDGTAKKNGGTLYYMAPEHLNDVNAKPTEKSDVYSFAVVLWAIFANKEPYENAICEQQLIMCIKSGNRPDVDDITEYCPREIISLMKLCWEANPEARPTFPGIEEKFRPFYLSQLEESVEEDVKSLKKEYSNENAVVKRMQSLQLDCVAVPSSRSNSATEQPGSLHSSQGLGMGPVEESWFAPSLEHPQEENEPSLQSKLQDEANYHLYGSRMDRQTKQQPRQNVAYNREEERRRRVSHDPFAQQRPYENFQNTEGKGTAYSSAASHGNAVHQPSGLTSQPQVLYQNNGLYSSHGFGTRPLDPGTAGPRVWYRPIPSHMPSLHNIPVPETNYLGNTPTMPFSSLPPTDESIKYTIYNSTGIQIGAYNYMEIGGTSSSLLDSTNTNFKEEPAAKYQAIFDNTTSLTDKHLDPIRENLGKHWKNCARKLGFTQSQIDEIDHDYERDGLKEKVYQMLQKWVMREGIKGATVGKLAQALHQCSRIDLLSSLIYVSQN

| Kd [1] [µM] | Kd [4] [µM] | Kd [5] [µM] | SMILES | IC50 [2] [µM] | IC50 [3, 7] [µM] | IC50 [3, 8] [µM] | IC50 ([3]; Table 23, read-out: Off-target effect (IC50 cell-based assay)) [µM] | IC50 [6] [µM] |
| --- | --- | --- | --- | --- | --- | --- | --- | --- |
| < 0.01 | – | – | Cc1ncsc1-c1ccc(CNC(=O)[C@@H]2C[C@@H](O)CN2C(=O)[C@@H](NC(=O)COCCN2CCC(n3cc(-c4cnc(N)c5c(-c6ccc(NS(=O)(=O)C(F)F)c(O[C@@H](C)c7ccc(F)cc7)c6)nn(C)c45)cn3)C2)C(C)(C)C)cc1 (stereo partly drawn) [Compound 1013, (2S,4R)-1-[(2S)-2-(2-{2-[3-(4-{4-amino-3-[4-(difluoromethanesulfonamido)-3-[(1S)-1-(4-fluorophenyl)ethoxy]phenyl]-1-methyl-1H-pyrazolo[4,3-c]pyridin-7-yl}-1H-pyrazol-1-yl)pyrrolidin-1-yl]ethoxy}acetamido)-3,3-dimethylbutanoyl]-4-hydroxy-N-{[4-(4-methyl-1,3-thiazol-5-yl)phenyl]methyl}pyrrolidine-2-carboxamide] | 1 to 10 | > 10 | – | – | – |
| 0.01 to 1 | – | – | Cc1ncsc1-c1ccc(CNC(=O)[C@@H]2C[C@H](O)CN2C(=O)[C@@H](NC(=O)COCCOCCn2cc(-c3cnc(N)c4c(-c5ccc(NS(=O)(=O)C(F)F)c(O[C@@H](C)c6ccc(F)cc6)c5)nn(C)c34)cn2)C(C)(C)C)cc1 [Compound 1007, (2S,4S)-1-[(2S)-2-(2-{2-[2-(4-{4-amino-3-[4-(difluoromethanesulfonamido)-3-[(1S)-1-(4-fluorophenyl)ethoxy]phenyl]-1-methyl-1H-pyrazolo[4,3-c]pyridin-7-yl}-1H-pyrazol-1-yl)ethoxy]ethoxy}acetamido)-3,3-dimethylbutanoyl]-4-hydroxy-N-{[4-(4-methyl-1,3-thiazol-5-yl)phenyl]methyl}pyrrolidine-2-carboxamide] | < 1 | > 10 | – | – | – |
| 0.01 to 1 | – | – | CCS(=O)(=O)Nc1ccc(-c2nn(C)c3c(-c4cnn(CCOCCOCC(=O)N[C@H](C(=O)N5C[C@H](O)C[C@H]5C(=O)NCc5ccc(-c6scnc6C)cc5)C(C)(C)C)c4)cnc(N)c23)cc1 [Compound 1019, (2S,4R)-1-[(2S)-2-{2-[2-(2-{4-[4-amino-3-(4-ethanesulfonamidophenyl)-1-methyl-1H-pyrazolo[4,3-c]pyridin-7-yl]-1H-pyrazol-1-yl}ethoxy)ethoxy]acetamido}-3,3-dimethylbutanoyl]-4-hydroxy-N-{[4-(4-methyl-1,3-thiazol-5-yl)phenyl]methyl}pyrrolidine-2-carboxamide] | 1 to 10 | > 10 | – | – | – |
| < 0.01 | – | – | CCS(=O)(=O)Nc1ccc(-c2n[nH]c3c(-c4cnn(CCOCC(=O)N[C@H](C(=O)N5C[C@H](O)C[C@H]5C(=O)NCc5ccc(-c6scnc6C)cc5)C(C)(C)C)c4)cnc(N)c23)cc1OCc1ccc(F)cc1 [Compound 1004, (2S,4R)-1-[(2S)-2-(2-{2-[4-(4-amino-3-{4-ethanesulfonamido-3-[(4-fluorophenyl)methoxy]phenyl}-1H-pyrazolo[4,3-c]pyridin-7-yl)-1H-pyrazol-1-yl]ethoxy}acetamido)-3,3-dimethylbutanoyl]-4-hydroxy-N-{[4-(4-methyl-1,3-thiazol-5-yl)phenyl]methyl}pyrrolidine-2-carboxamide] | > 10 | > 10 | – | – | – |

Continued, compound first:

| SMILES | Kd [1] [µM] | Kd [4] [µM] | Kd [5] [µM] | IC50 [2] [µM] | IC50 [3, 7] [µM] | IC50 [3, 8] [µM] | IC50 ([3]; Table 23, read-out: Off-target effect (IC50 cell-based assay)) [µM] | IC50 [6] [µM] |
| --- | --- | --- | --- | --- | --- | --- | --- | --- |
| CCS(=O)(=O)Nc1ccc(-c2nn(C)c3c(-c4cnn(CCCCCCC(=O)N[C@H](C(=O)N5C[C@H](O)C[C@H]5C(=O)NCc5ccc(-c6scnc6C)cc5)C(C)(C)C)c4)cnc(N)c23)cc1 [Compound 1020, (2S,4R)-1-[(2S)-2-(7-{4-[4-amino-3-(4-ethanesulfonamidophenyl)-1-methyl-1H-pyrazolo[4,3-c]pyridin-7-yl]-1H-pyrazol-1-yl}heptanamido)-3,3-dimethylbutanoyl]-4-hydroxy-N-{[4-(4-methyl-1,3-thiazol-5-yl)phenyl]methyl}pyrrolidine-2-carboxamide] | 0.01 to 1 | – | – | < 1 | > 10 | – | – | – |
| CCS(=O)(=O)Nc1ccc(-c2nn(C)c3c(-c4cnn(CCOCCOCC(=O)N[C@H](C(=O)N5C[C@H](O)C[C@H]5C(=O)NCc5ccc(-c6scnc6C)cc5)C(C)(C)C)c4)cnc(C)c23)cc1F [Compound 1029, (2S,4R)-1-[(2S)-2-{2-[2-(2-{4-[3-(4-ethanesulfonamido-3-fluorophenyl)-1,4-dimethyl-1H-pyrazolo[4,3-c]pyridin-7-yl]-1H-pyrazol-1-yl}ethoxy)ethoxy]acetamido}-3,3-dimethylbutanoyl]-4-hydroxy-N-{[4-(4-methyl-1,3-thiazol-5-yl)phenyl]methyl}pyrrolidine-2-carboxamide] | – | – | – | < 1 | > 10 | – | – | – |
| C[C@H](Oc1cc(-c2nn(C)c3c(-c4ccnc(C(C)(C)C)c4)cnc(N)c23)ccc1NS(=O)(=O)C(F)F)c1ccc(F)cc1 [Compound 48, (S)-N-(4-(4-amino-7-(2-(tert-butyl)pyridin-4-yl)-1-methyl-1H-pyrazolo[4,3-c]pyridin-3-yl)-2-(1-(4-fluorophenyl)ethoxy)phenyl)-1,1-difluoromethanesulfonamide] | – | > 10 | > 10 | – | – | 1 to 10 | – | – |
| C[C@H](Oc1cc(-c2nn(C)c3c(-c4cnn(C5CCN(C)C6(CC6)C5)c4)cnc(N)c23)ccc1NS(=O)(=O)C(F)F)c1ccc(F)cc1 (single isomer, unassigned) [Compound 171, N-(4-(4-amino-1-methyl-7-(1-((R*)-4-methyl-4-azaspiro[2.5]octan-7-yl)-1H-pyrazol-4-yl)-1H-pyrazolo[4,3-c]pyridin-3-yl)-2-((S)-1-(4-fluorophenyl)ethoxy)phenyl)-1,1-difluoromethanesulfonamide] | – | – | – | – | – | – | > 10 | – |
| CCS(=O)(=O)Nc1ccc(-c2n[nH]c3c(-c4cnn(CCC(=O)N[C@H](C(=O)N5C[C@H](O)C[C@H]5C(=O)NCc5ccc(-c6scnc6C)cc5)C(C)(C)C)c4)cnc(N)c23)cc1OCc1ccc(F)cc1 [Compound 1001, (2S,4R)-1-[(2S)-2-{3-[4-(4-amino-3-{4-ethanesulfonamido-3-[(4-fluorophenyl)methoxy]phenyl}-1H-pyrazolo[4,3-c]pyridin-7-yl)-1H-pyrazol-1-yl]propanamido}-3,3-dimethylbutanoyl]-4-hydroxy-N-{[4-(4-methyl-1,3-thiazol-5-yl)phenyl]methyl}pyrrolidine-2-carboxamide] | < 0.01 | – | – | > 10 | > 10 | – | – | – |
| C[C@H](Oc1cc(-c2nn(C)c3c(-c4cnn(C5CCN(C)CC5)c4)cnc(N)c23)ccc1NS(=O)(=O)C(F)F)c1ccc(F)cc1 [Compound 46, (S)-N-(4-(4-amino-1-methyl-7-(1-(1-methylpiperidin-4-yl)-1H-pyrazol-4-yl)-1H-pyrazolo[4,3-c]pyridin-3-yl)-2-(1-(4-fluorophenyl)ethoxy)phenyl)-1,1-difluoromethanesulfonamide] | – | > 10 | > 10 | – | – | > 10 | – | < 1 |
